Tests used:
CDK2/CycE = CDK2/CycE (Homo sapiens (Human), UniProt P24941); assay: CDK2/CycE kinase assay (TR-FRET); assay type: biochemical; details: 10 μM ATP; read-out: CDK2 avg (IC50 [mol/l])
Text: CDK2/CycE-inhibitory activity of compounds of the present invention was quantified employing the CDK2/CycE TR-FRET assay as described in the following paragraphs.
Recombinant fusion proteins of GST and human CDK2 and of GST and human CycE, expressed in insect cells (Sf9) and purified by Glutathion-Sepharose affinity chromatography, were purchased from ProQinase GmbH (Freiburg, Germany). As substrate for the kinase reaction biotinylated peptide biotin-Ttds-YISPLKSPYKISEG (C-terminus in amid form) was used which can be purchased e.g. form the company JERINI peptide technologies (Berlin, Germany).
For the assay 50 nl of a 100 fold concentrated solution of the test compound in DMSO was pipetted into a black low volume 384 well microtiter plate (Greiner Bio-One, Frickenhausen, Germany), 2 μl of a solution of CDK2/CycE in aqueous assay buffer [50 mM Tris/HCl pH 8.0, 10 mM MgCl2, 1.0 mM dithiothreitol, 0.1 mM sodium ortho-vanadate, 0.01% (v/v) Nonidet-P40 (Sigma)] were added and the mixture was incubated for 15 min at 22° C. to allow pre-binding of the test compounds to the enzyme before the start of the kinase reaction. Then the kinase reaction was started by the addition of 3 μl of a solution of adenosine-tri-phosphate (ATP, 16.7 μM=>final conc. in the 5 μl assay volume is 10 μM) and substrate (1.25 μM=>final conc. in the 5 μl assay volume is 0.75 μM) in assay buffer and the resulting mixture was incubated for a reaction time of 25 min at 22° C. The concentration of CDK2/CycE was adjusted depending of the activity of the enzyme lot and was chosen appropriate to have the assay in the linear range, typical concentrations were in the range of 130 ng/ml. The reaction was stopped by the addition of 5 μl of a solution of TR-FRET detection reagents (0.2 μM streptavidine-XL665 [Cisbio Bioassays, Codolet, France] and 1 nM anti-RB(pSer807/pSer811)-antibody from BD Pharmingen [#558389] and 1.2 nM LANCE EU-W1024 labeled anti-mouse IgG antibody [Perkin-Elmer, product no. AD0077, as an alternative a Terbium-cryptate-labeled anti-mouse IgG antibody from Cisbio Bioassays can be used]) in an aqueous EDTA-solution (100 mM EDTA, 0.2% (w/v) bovine serum albumin in 100 mM HEPES/NaOH pH 7.0).
The resulting mixture was incubated 1 h at 22° C. to allow the formation of complex between the phosphorylated biotinylated peptide and the detection reagents. Subsequently the amount of phosphorylated substrate was evaluated by measurement of the resonance energy transfer from the Eu-chelate to the streptavidine-XL. Therefore, the fluorescence emissions at 620 nm and 665 nm after excitation at 350 nm was measured in a TR-FRET reader, e.g. a Rubystar (BMG Labtechnologies, Offenburg, Germany) or a Viewlux (Perkin-Elmer). The ratio of the emissions at 665 nm and at […] was taken as the measure for the amount of phosphorylated substrate. The data were normalised (enzyme reaction without inhibitor=0% inhibition, all other assay components but no enzyme=100% inhibition).

human kinase Mps-1 = human kinase Mps-1 (Homo sapiens (Human), UniProt P33981); assay: Mps-1 kinase assay (TR-FRET); assay type: biochemical; details: 10 μM ATP; read-out: Mps1 avg (IC50 [mol/l])
Method: The human kinase Mps-1 phosphorylates a biotinylated substrate peptide. Detection of the phosphorylated product is achieved by time-resolved fluorescence resonance energy transfer (TR-FRET) from Europium-labelled anti-phospho-Serine/Threonine antibody as donor to streptavidin labelled with cross-linked allophycocyanin (SA-XLent) as acceptor. Compounds are tested for their inhibition of the kinase activity.
N-terminally GST-tagged human full length recombinant Mps-1 kinase (purchased from Invitrogen, Karslruhe, Germany, cat. no PV4071) was used. As substrate for the kinase reaction a biotinylated peptide of the amino-acid sequence biotin-Ahx-PWDPDDADITEILG (C-terminus in amide form, purchased from Biosyntan GmbH, Berlin) was used.
For the assay 50 nl of a 100-fold concentrated solution of the test compound in DMSO was pipetted into a black low volume 384 well microtiter plate (Greiner Bio-One, Frickenhausen, Germany), 2 μl of a solution of Mps-1 in assay buffer [0.1 mM sodium-ortho-vanadate, 10 mM MgCl2, 2 mM DTT, 25 mM Hepes pH 7.7, 0.05% BSA (w/v), 0.001% Pluronic F-127] were added and the mixture was incubated for 15 min at 22° C. to allow pre-binding of the test compounds to Mps-1 before the start of the kinase reaction. Then the kinase reaction was started by the addition of 3 μl of a solution of 16.7 μM adenosine-tri-phosphate (ATP, 16.7 μM=>final conc. in the 5 μl assay volume is 10 μM) and peptide substrate (1.67 μM=>final conc. in the 5 μl assay volume is 1 μM) in assay buffer and the resulting mixture was incubated for a reaction time of 60 min at 22° C. The concentration of Mps-1 in the assay was adjusted to the activity of the enzyme lot and was chosen appropriate to have the assay in the linear range, typical enzyme concentrations were in the range of about 0.5 nM (final conc. in the 5 μl assay volume). The reaction was stopped by the addition of 5 μl of a solution of TR-FRET detection reagents (100 mM Hepes pH 7.4, 0.1% BSA, 40 mM EDTA, 140 nM Streptavidin-XLent [#61GSTXLB, Fa. Cis Biointernational, Marcoule, France], 1.5 nM anti-phospho(Ser/Thr)-Europium-antibody [#AD0180, PerkinElmer LAS, Rodgau-Jugesheim, Germany]. Instead of the 1.5 nM anti-phospho(Ser/Thr)-Europium-antibody a mixture of 2 nM unlabeled anti-phospho ser/thr-pro antibody MPM-2 [Millipore cat. #05-368] and 1 nM LANCE EU-W1024 labeled anti-mouse IgG antibody [Perkin-Elmer, product no. AD0077] can be used).
The resulting mixture was incubated 1 h at 22° C. to allow the binding of the phosphorylated peptide to the anti-phospho(Ser/Thr)-Europium-antibody. Subsequently the amount of phosphorylated substrate was evaluated by measurement of the resonance energy transfer from the Europium-labelled anti-phospho(Ser/Thr) antibody to the Streptavidin-XLent. Therefore, the fluorescence emissions at 620 nm and 665 nm after excitation at 350 nm was measured in a Viewlux TR-FRET reader (PerkinElmer LAS, Rodgau-Jugesheim, Germany). The “blank-corrected normalized ratio” (a Viewlux specific readout, similar to the traditional ratio of the emissions at 665 nm and at 622 nm, in which blank and Eu-donor crosstalk are subtracted from the 665 nm signal before the ratio is calculated) was taken as the measure for the amount of phosphorylated substrate. The data were normalised (enzyme reaction without inhibitor=0% inhibition, all other assay components but no enzyme=100% inhibition).

Chain of human kinase Mps-1 (P33981 whole entry): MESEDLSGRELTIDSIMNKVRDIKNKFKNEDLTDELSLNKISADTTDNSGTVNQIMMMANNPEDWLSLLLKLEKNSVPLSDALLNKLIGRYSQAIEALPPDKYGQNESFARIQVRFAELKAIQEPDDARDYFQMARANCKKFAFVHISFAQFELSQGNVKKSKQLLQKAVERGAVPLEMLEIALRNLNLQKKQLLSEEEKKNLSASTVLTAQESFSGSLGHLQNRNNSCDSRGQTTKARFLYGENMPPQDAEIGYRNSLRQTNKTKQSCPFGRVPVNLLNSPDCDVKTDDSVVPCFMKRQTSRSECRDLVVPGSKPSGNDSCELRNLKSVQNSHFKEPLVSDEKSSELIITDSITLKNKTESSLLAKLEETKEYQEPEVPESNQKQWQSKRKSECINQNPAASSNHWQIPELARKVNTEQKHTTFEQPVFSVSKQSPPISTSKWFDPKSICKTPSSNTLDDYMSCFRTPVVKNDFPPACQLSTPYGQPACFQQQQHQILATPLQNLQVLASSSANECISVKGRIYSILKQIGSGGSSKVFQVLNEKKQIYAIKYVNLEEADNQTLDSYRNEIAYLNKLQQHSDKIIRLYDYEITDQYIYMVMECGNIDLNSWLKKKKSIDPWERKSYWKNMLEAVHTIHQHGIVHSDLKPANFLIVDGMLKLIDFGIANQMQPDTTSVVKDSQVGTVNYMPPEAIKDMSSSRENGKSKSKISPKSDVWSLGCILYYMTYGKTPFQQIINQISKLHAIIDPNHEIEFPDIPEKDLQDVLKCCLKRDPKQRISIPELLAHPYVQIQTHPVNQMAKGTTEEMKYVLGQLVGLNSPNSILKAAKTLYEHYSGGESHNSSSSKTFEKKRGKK

IC50 (CDK2/CycE)	IC50 (human kinase Mps-1)	SMILES
> 20 µM	> 20 µM	COc1ncc(NC(=O)c2c(C)nsc2Nc2cnc3ccccc3n2)cc1C [Example 121, N-(6-Methoxy-5-methylpyridin-3-yl)-3-methyl-5-(quinoxalin-2-ylamino)-1,2-thiazole-4-carboxamide]
> 20 µM	> 20 µM	CCc1ccccc1NC(=O)c1c(C)nsc1Nc1cnc2ccccc2n1 [Example 19, N-(2-Ethylphenyl)-3-methyl-5-(quinoxalin-2-ylamino)-1,2-thiazole-4-carboxamide]
> 20 µM	> 20 µM	COc1ccc(NC(=O)c2c(C)nsc2Nc2cnc3cc(C(F)(F)F)ccc3n2)cn1 [Example 45, N-(6-Methoxypyridin-3-yl)-3-methyl-5-{[6-(trifluoromethyl)quinoxalin-2-yl]amino}-1,2-thiazole-4-carboxamide]
> 20 µM	> 20 µM	COC(=O)c1cnc(Nc2snc(C)c2C(=O)Nc2ccc(F)c(F)c2)o1 [Example 97, Methyl 2-({4-[(3,4-difluoro-phenyl)carbamoyl]-3-methyl-1,2-thiazol-5-yl}amino)-1,3-oxazole-5-carboxylate]
> 20 µM	> 20 µM	CCc1ccccc1NC(=O)c1c(C)nsc1Nc1nccnc1C#N [Example 34, 5-[(3-Cyanopyrazin-2-yl)amino]-N-(2-ethylphenyl)-3-methyl-1,2-thiazole-4-carboxamide]
> 20 µM	> 20 µM	CCOC(=O)c1coc(Nc2snc(C)c2C(=O)Nc2ccc(OC)nc2)n1 [Example 100, Ethyl 2-({4-[(6-methoxypyridin-3-yl)carbamoyl]-3 methyl-1,2-thiazol-5-yl}amino)-1,3-oxazole-4-carboxylate]
> 20 µM	> 20 µM	Cc1nsc(Nc2cc(C#N)ccn2)c1C(=O)Nc1ccc(Cl)c(F)c1 [Example 54, N-(4-Chloro-3-fluorophenyl)-5-[(4-cyanopyridin-2-yl)amino]-3-methyl-1,2-thiazole-4-carboxamide]
> 20 µM	> 20 µM	Cc1nsc(Nc2nc3c(C(F)(F)F)cccc3s2)c1C(=O)Nc1ccc(F)c(F)c1 [Example 51, N-(3,4-Difluorophenyl)-3-methyl-5-{[4-(trifluoromethyl)-1,3-benzothiazol-2-yl]-amino}-1,2-thiazole-4-carboxamide]
> 20 µM	> 20 µM	CCc1ccnc(Nc2snc(C)c2C(=O)Nc2ccccc2CC)n1 [Example 17, N-(2-Ethylphenyl)-5-[(4-ethylpyrimidin-2-yl)amino]-3-methyl-1,2-thiazole-4-carboxamide]
> 20 µM	> 20 µM	Cc1nsc(Nc2cnc(C(=O)N(C)C)cn2)c1C(=O)Nc1ccc(F)c(F)c1 [Example 109, 5-({4-[(3,4-Difluorophenyl)carbamoyl]-3-methyl-1,2-thiazol-5-yl}amino)-N,N-dimethylpyrazine-2-carboxamide]
> 20 µM	> 20 µM	Cc1nsc(Nc2cnc3ccccc3n2)c1C(=O)Nc1ccc(OC2CCCCC2)nc1 [Example 115, N-[6-(Cyclohexyloxy)pyridin-3-yl]-3-methyl-5-(quinoxalin-2-ylamino)-1,2-thiazole-4-carboxamide]
> 20 µM	> 20 µM	CCc1ccccc1NC(=O)c1c(C)nsc1Nc1ncccc1C#N [Example 8, 5-[(3-Cyanopyridin-2-yl)amino]-N-(2-ethylphenyl)-3-methyl-1,2-thiazole-4-carboxamide]
> 20 µM	> 20 µM	CCc1ccccc1NC(=O)c1c(C)nsc1Nc1nc2ccccc2s1 [Example 14, 5-(1,3-Benzothiazol-2-ylamino)-N-(2-ethylphenyl)-3-methyl-1,2-thiazole-4-carboxamide]
> 20 µM	> 20 µM	CCc1ccccc1NC(=O)c1c(C)nsc1Nc1nc2ccccc2nc1C [Example 21, N-(2-Ethylphenyl)-3-methyl-5-[(3-methylquinoxalin-2-yl)amino]-1,2-thiazole-4-carboxamide]
> 20 µM	> 20 µM	COc1ccc(NC(=O)c2c(C)nsc2Nc2cnc3c(F)c(F)ccc3n2)cn1 [Example 43, 5-[(5,6-Difluoroquinoxalin-2-yl)amino]-N-(6-methoxypyridin-3-yl)-3-methyl-1,2-thiazole-4-carboxamide]
> 20 µM	> 20 µM	COc1ccc(NC(=O)c2c(C)nsc2Nc2cccc(C#N)n2)cn1 [Example 37, 5-[(6-Cyanopyridin-2-yl)amino]-N-(6-methoxypyridin-3-yl)-3-methyl-1,2-thiazole-4-carboxamide]
> 20 µM	> 20 µM	COc1ccc(NC(=O)c2c(C)nsc2Nc2cnc3ccc(Cl)cc3n2)cn1 [Example 42, 5-[(7-Chloroquinoxalin-2-yl)amino]-N-(6-methoxypyridin-3-yl)-3-methyl-1,2-thiazole-4-carboxamide]
> 20 µM	> 20 µM	CCc1ccccc1NC(=O)c1c(C)nsc1Nc1nc(C)nc2ccccc12 [Example 35, N-(2-Ethylphenyl)-3-methyl-5-[(2-methylquinazolin-4-yl)amino]-1,2-thiazole-4-carboxamide]
> 20 µM	–	Cc1nsc(Nc2cc(C#N)ccn2)c1C(=O)Nc1ccc(Oc2ccccc2)nc1 [Example 111, 5-[(4-Cyanopyridin-2-yl)amino]-3-methyl-N-(6-phenoxypyridin-3-yl)-1,2-thiazole-4-carboxamide]
> 20 µM	–	Cc1nsc(Nc2cc(C#N)ccn2)c1C(=O)Nc1ccc(Oc2ccc(F)cc2F)nc1 [Example 114, 5-[(4-Cyanopyridin-2-yl)amino]-N-[6-(2,4-difluorophenoxy)pyridin-3-yl]-3-methyl-1,2-thiazole-4-carboxamide]
